From patent US9303042B2, “Triazolothienopyrimidine compound inhibitors of urea transporters and methods of using inhibitors” (The Regents of the University of California, priority 2012, dated 2016)
Where two headings read alike, the source gives them in different places.

Assays:
UT-B = molecular target: T1, UT-B (Mus musculus, UniProt Q8VHL0); experiment: Erythrocyte lysis assay of UT-B inhibition; format: cell-based; design: Screening was performed using mouse erythrocytes, which strongly express UT-B; endogenous in cells; host or cells: erythrocytes in whole blood of wild-type CD1 mice; details: erythrocyte lysis assay, read-out: IC50
T1 sequence (Q8VHL0 1-384): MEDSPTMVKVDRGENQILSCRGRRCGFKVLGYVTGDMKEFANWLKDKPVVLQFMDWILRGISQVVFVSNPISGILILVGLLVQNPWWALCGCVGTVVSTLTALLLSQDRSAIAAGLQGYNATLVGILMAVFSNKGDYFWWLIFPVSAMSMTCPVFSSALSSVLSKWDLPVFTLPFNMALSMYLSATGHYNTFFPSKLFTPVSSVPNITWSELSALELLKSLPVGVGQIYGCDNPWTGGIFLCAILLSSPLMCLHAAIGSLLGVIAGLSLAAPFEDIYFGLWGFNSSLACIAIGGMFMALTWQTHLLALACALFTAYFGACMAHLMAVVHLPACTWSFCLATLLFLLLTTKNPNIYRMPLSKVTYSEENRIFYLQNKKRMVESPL
Description: Screening was performed using mouse erythrocytes, which strongly express UT-B and are highly water permeable because the cells also express aquaporin-1 (AQP1) water channels. The screening method involved assay of erythrocyte lysis in response to a large, outwardly directed gradient of acetamide, a urea analog that is transported efficiently by UT-B. A large, outwardly directed gradient of acetamide causes transient cell swelling, but little cell lysis, because UT-B-facilitated acetamide efflux limits water influx (see FIG. 1A). UT-B inhibition prevents acetamide efflux, allowing unopposed cell swelling and consequent cell lysis, which was recorded by reduced near-infrared light absorption at 710 nm.
Primary screening was done using a collection of 100,000 diverse, drug-like compounds from commercial sources (ChemDiv, San Diego, Calif.; Asinex, Winston-Salem, N.C.). […] Vigorous mixing was achieved by repeated pipetting. Erythrocyte lysis was quantified by absorbance at 710 nm wavelength, made within 5 min after hypo-osmolar shock. […] For analysis of structure-activity relationships >900 commercially available analogs (ChemDiv and Asinex) were tested.

[1] = In vitro metabolic stability in hepatic microsomes; format: in vitro ADME, rat; details: for % Remaining after 10 min incubation with liver microsomes: NADPH, compound 5 μM; for metabolic stability (in words): hepatic microsomes
Description: Compounds, each at 5 μM, were incubated for specified times at 37° C. with rat liver microsomes (1 mg protein/ml; Sigma-Aldrich, St. Louis, Mo.) in potassium phosphate buffer (100 mM) containing 1 mM NADPH. The mixture was then chilled on ice, and 0.5 ml of ice-cold ethyl acetate was added.

[2] = Table 1, commercially available analogues

| SMILES | IC50 (UT-B; [2]) [nM] | % Remaining after 10 min incubation with liver microsomes [1] [%] | metabolic stability (in words) [1] | IC50 (UT-B) [nM] |
| --- | --- | --- | --- | --- |
| COc1ccc(CNc2nc3c(S(=O)(=O)c4ccc(C)cc4)nnn3c3ccsc23)cc1 [Compound 2ad, [3-(4-methyl-benzenesulfonyl)-thieno[2,3-e][1,2,3]triazolo[1,5-a]pyrimidin-5-yl]-(4-methoxy-benzyl)-amine] | 1660 | 80 | improved metabolic stability | – |
| Cc1ccc(S(=O)(=O)c2nnn3c2nc(NCc2ccc(F)cc2)c2sccc23)cc1 [Compound 2aj, [3-(4-methyl-benzenesulfonyl)-thieno[2,3-e][1,2,3]triazolo[1,5-a]pyrimidin-5-yl]-(4-fluoro-benzyl)-amine] | 733 | 86 | improved metabolic stability | – |
| Cc1ccc(S(=O)(=O)c2nnn3c2nc(NCc2ccco2)c2sccc23)cc1C [Compound 2am, furan-2-ylmethyl-[3-(3,4-dimethyl-benzenesulfonyl)-thieno[2,3-e][1,2,3]triazolo[1,5-a]pyrimidin-5-yl]-amine] | 156 | <2 | – | – |
| Cc1ccc(S(=O)(=O)c2nnn3c2nc(N2CCOCC2)c2sccc23)cc1C [Compound 2an] | 1710 | 6 | – | – |
| Cc1ccc(S(=O)(=O)c2nnn3c2nc(NCc2ccccc2)c2sccc23)cc1C [Compound 2ao, [3-(3,4-dimethyl-benzenesulfonyl)-thieno[2,3-e][1,2,3]triazolo[1,5-a]pyrimidin-5-yl]-benzyl-amine] | 1000 | 3 | – | – |
| COc1ccccc1CNc1nc2c(S(=O)(=O)c3ccc(C)c(C)c3)nnn2c2ccsc12 [Compound 2as, [3-(3,4-dimethyl-benzenesulfonyl)-thieno[2,3-e][1,2,3]triazolo[1,5-a]pyrimidin-5-yl]-(2-methoxy-benzyl)-amine] | 1040 | 15 | – | – |
| COc1ccc(CNc2nc3c(S(=O)(=O)c4ccc(C)c(C)c4)nnn3c3ccsc23)cc1 [Compound 2at, [3-(3,4-dimethyl-benzenesulfonyl)-thieno[2,3-e][1,2,3]triazolo[1,5-a]pyrimidin-5-yl]-(4-methoxy-benzyl)-amine] | 1540 | 12 | – | – |
| Cc1ccc(S(=O)(=O)c2nnn3c2nc(NCCC(C)C)c2sccc23)cc1C [Compound 2au] | 854 | 35 | – | – |
| CCOCCCNc1nc2c(S(=O)(=O)c3ccc(C)c(C)c3)nnn2c2ccsc12 [Compound 2aw, {3-[3,4-dimethyl-benzenesulfonyl]-thieno[2,3-e][1,2,3]triazolo[1,5-a]pyrimidin-5-yl}-3-ethoxylpropyl-amine] | 520 | 2 | – | – |
| Cc1ccc(S(=O)(=O)c2nnn3c2nc(N2CCCCC2)c2sccc23)cc1C [Compound 2az] | 1760 | <2 | – | – |
| Cc1ccc(S(=O)(=O)c2nnn3c2nc(NCc2ccc(Cl)cc2)c2sccc23)cc1C [Compound 2bc, [3-(3,4-dimethyl-benzenesulfonyl)-thieno[2,3-e][1,2,3]triazolo[1,5-a]pyrimidin-5-yl]-(4-chloro-benzyl)-amine] | 582 | 83 | improved metabolic stability | – |
| Cc1ccc(S(=O)(=O)c2nnn3c2nc(NCc2cccs2)c2sccc23)cc1C [Compound 2bd, {3-[3,4-dimethyl-benzenesulfonyl]-thieno[2,3-e][1,2,3]triazolo[1,5-a]pyrimidin-5-yl}-thiophen-2-ylmethyl-amine] | 37 | <2 | – | – |
| O=S(=O)(c1ccc(Cl)cc1)c1nnn2c1nc(NCc1ccco1)c1sccc12 [Compound 2bf, furan-2-ylmethyl-[3-(4-chloro-benzenesulfonyl)-thieno[2,3-e][1,2,3]triazolo[1,5-a]pyrimidin-5-yl]-amine] | 1870 | 21 | – | – |
| CCCCNc1nc2c(S(=O)(=O)c3ccc(Cl)cc3)nnn2c2ccsc12 [Compound 2bg] | 1260 | 74 | – | – |
| COCCNc1nc2c(S(=O)(=O)c3ccc(Cl)cc3)nnn2c2ccsc12 [Compound 2bh, {3-[4-chloro-benzenesulfonyl]-thieno[2,3-e][1,2,3]triazolo[1,5-a]pyrimidin-5-yl}-2-methoxyethyl-amine] | 1910 | 63 | – | – |
| O=S(=O)(c1ccc(Cl)cc1)c1nnn2c1nc(NCc1cccs1)c1sccc12 [Compound 2bi, {3-[4-chloro-benzenesulfonyl]-thieno[2,3-e][1,2,3]triazolo[1,5-a]pyrimidin-5-yl}-thiophen-2-ylmethyl-amine] | 214 | 52 | – | – |
| CCCCNc1nc2c(S(=O)(=O)c3ccc(C(C)C)cc3)nnn2c2ccsc12 [Compound 2bm] | 191 | <2 | – | – |
| COCCNc1nc2c(S(=O)(=O)c3ccc(C(C)C)cc3)nnn2c2ccsc12 [Compound 2bo, {3-[4-isopropyl-benzenesulfonyl]-thieno[2,3-e][1,2,3]triazolo[1,5-a]pyrimidin-5-yl}-2-methoxyethyl-amine] | 711 | 14 | – | – |
| CCc1ccc(S(=O)(=O)c2nnn3c2nc(NCc2ccco2)c2sccc23)cc1 [Compound 2bp, furan-2-ylmethyl-[3-(4-ethyl-benzenesulfonyl)-thieno[2,3-e][1,2,3]triazolo[1,5-a]pyrimidin-5-yl]-amine] | – | 12 | – | 239 |
| CCc1ccc(S(=O)(=O)c2nnn3c2nc(NCc2ccccc2)c2sccc23)cc1 [Compound 2br, [3-(4-ethyl-benzenesulfonyl)-thieno[2,3-e][1,2,3]triazolo[1,5-a]pyrimidin-5-yl]-benzyl-amine] | 664 | 44 | – | – |
| CCc1ccc(S(=O)(=O)c2nnn3c2nc(N(CC)CC)c2sccc23)cc1 [Compound 2bs] | 1770 | 6 | – | – |
| CCc1ccc(S(=O)(=O)c2nnn3c2nc(NCc2ccc(Cl)cc2)c2sccc23)cc1 [Compound 2bt, [3-(4-ethyl-benzenesulfonyl)-thieno[2,3-e][1,2,3]triazolo[1,5-a]pyrimidin-5-yl]-(4-chloro-benzyl)-amine] | 374 | 81 | improved metabolic stability | – |
